According to PubChem BioAssay (NCI):
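The compound was tested at five concentrations on cells cultured in 96-well plates, with a 48-hour exposure period. TGI marks complete inhibition of growth.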

Tests used:
Assay in all cases: growth of human tumour cells (NCI), 48 h
786-0 renal = system: 786-0 renal
A498 renal = system: A498 renal
A549 NSCLC = system: A549 NSCLC
ACHN renal = system: ACHN renal
BT-549 breast = system: BT-549 breast
CAKI-1 renal = system: CAKI-1 renal
CCRF-CEM leukemia = system: CCRF-CEM leukemia
COLO 205 colon = system: COLO 205 colon
DU-145 prostate = system: DU-145 prostate
EKVX NSCLC = system: EKVX NSCLC
HCT-116 colon = system: HCT-116 colon
HCT-15 colon = system: HCT-15 colon
HOP-62 NSCLC = system: HOP-62 NSCLC
HOP-92 NSCLC = system: HOP-92 NSCLC
HS 578T breast = system: HS 578T breast
HT29 colon = system: HT29 colon
IGROV1 ovarian = system: IGROV1 ovarian
K-562 leukemia = system: K-562 leukemia
KM12 colon = system: KM12 colon
LOX IMVI melanoma = system: LOX IMVI melanoma
M14 melanoma = system: M14 melanoma
MALME-3M melanoma = system: MALME-3M melanoma
MCF7 breast = system: MCF7 breast
MDA-MB-231 breast = system: MDA-MB-231 breast
MDA-MB-435 = system: MDA-MB-435
MDA-N = system: MDA-N
MOLT-4 leukemia = system: MOLT-4 leukemia
NCI-H23 lung = system: NCI-H23 lung
NCI-H460 lung = system: NCI-H460 lung
NCI-H522 lung = system: NCI-H522 lung
NCI/ADR-RES ovarian = system: NCI/ADR-RES ovarian
OVCAR-3 ovarian = system: OVCAR-3 ovarian
OVCAR-4 ovarian = system: OVCAR-4 ovarian
OVCAR-5 ovarian = system: OVCAR-5 ovarian
OVCAR-8 ovarian = system: OVCAR-8 ovarian
PC-3 prostate = system: PC-3 prostate
RPMI-8226 leukemia = system: RPMI-8226 leukemia
RXF 393 renal = system: RXF 393 renal
SF-268 CNS = system: SF-268 CNS
SF-295 CNS = system: SF-295 CNS
SK-MEL-2 melanoma = system: SK-MEL-2 melanoma
SK-MEL-28 melanoma = system: SK-MEL-28 melanoma
SK-MEL-5 melanoma = system: SK-MEL-5 melanoma
SK-OV-3 ovarian = system: SK-OV-3 ovarian
SN12C renal = system: SN12C renal
SNB-19 CNS = system: SNB-19 CNS
SNB-75 CNS = system: SNB-75 CNS
SR leukemia = system: SR leukemia
SW-620 colon = system: SW-620 colon
T-47D breast = system: T-47D breast
TK-10 renal = system: TK-10 renal
U251 CNS = system: U251 CNS
UACC-257 melanoma = system: UACC-257 melanoma
UACC-62 melanoma = system: UACC-62 melanoma
UO-31 renal = system: UO-31 renal

`O=C1CCC2(O)C3Cc4ccc(Oc5nnnn5-c5ccccc5)c5c4C2(CCN3CC2CC2)C1O5` (stereo not given) showed a TGI (786-0 renal) of 41.2 µM, a TGI (A498 renal) of 90.1 µM and a TGI (A549 NSCLC) greater than 100 µM. It also gave a TGI (ACHN renal) greater than 100 µM, a TGI (BT-549 breast) greater than 100 µM and a TGI (CAKI-1 renal) greater than 100 µM. It also gave a TGI (CCRF-CEM leukemia) of 47.4 µM, a TGI (COLO 205 colon) of 32.9 µM and a TGI (DU-145 prostate) greater than 100 µM. It also gave a TGI (EKVX NSCLC) greater than 100 µM, a TGI (HCT-116 colon) greater than 100 µM and a TGI (HCT-15 colon) greater than 100 µM. The TGI (HOP-62 NSCLC) was greater than 100 µM, the TGI (HOP-92 NSCLC) was greater than 100 µM and the TGI (HS 578T breast) was greater than 100 µM. It also gave a TGI (HT29 colon) of 68.8 µM, a TGI (IGROV1 ovarian) greater than 100 µM and a TGI (K-562 leukemia) greater than 100 µM. It also gave a TGI (KM12 colon) greater than 100 µM, a TGI (LOX IMVI melanoma) of 84.6 µM and a TGI (M14 melanoma) of 33.5 µM. For the same molecule, the TGI (MALME-3M melanoma) was 32.7 µM, the TGI (MCF7 breast) was greater than 100 µM and the TGI (MDA-MB-231 breast) was greater than 100 µM. For the same molecule, the TGI (MDA-MB-435) was 37 µM, the TGI (MDA-N) was 51 µM and the TGI (MOLT-4 leukemia) was greater than 100 µM. It also gave a TGI (NCI-H23 lung) greater than 100 µM, a TGI (NCI-H460 lung) greater than 100 µM and a TGI (NCI-H522 lung) of 61.6 µM. For the same molecule, the TGI (NCI/ADR-RES ovarian) was greater than 100 µM, the TGI (OVCAR-3 ovarian) was greater than 100 µM and the TGI (OVCAR-4 ovarian) was greater than 100 µM. The TGI (OVCAR-5 ovarian) was greater than 100 µM, the TGI (OVCAR-8 ovarian) was greater than 100 µM and the TGI (PC-3 prostate) was greater than 100 µM. It also gave a TGI (RPMI-8226 leukemia) greater than 100 µM, a TGI (RXF 393 renal) greater than 100 µM and a TGI (SF-268 CNS) greater than 100 µM. It also gave a TGI (SF-295 CNS) greater than 100 µM, a TGI (SK-MEL-2 melanoma) of 53.1 µM and a TGI (SK-MEL-28 melanoma) of 30.8 µM. For the same molecule, the TGI (SK-MEL-5 melanoma) was 25.9 µM, the TGI (SK-OV-3 ovarian) was greater than 100 µM and the TGI (SN12C renal) was greater than 100 µM. The TGI (SNB-19 CNS) was greater than 100 µM, the TGI (SNB-75 CNS) was greater than 100 µM and the TGI (SR leukemia) was 42.9 µM. For the same molecule, the TGI (SW-620 colon) was greater than 100 µM, the TGI (T-47D breast) was greater than 100 µM and the TGI (TK-10 renal) was greater than 100 µM. The TGI (U251 CNS) was greater than 100 µM, the TGI (UACC-257 melanoma) was 45.7 µM and the TGI (UACC-62 melanoma) was 76 µM. The TGI (UO-31 renal) was 61.1 µM.
